From US9243039B2, “Bipartite inhibitors of bacterial RNA polymerase: Sal-target-inhibitor/nucleoside-analog-inhibitor conjugates” (priority 2012, dated 2016)

Assays:
[1] = test system: mutants resistant to other RNAP inhibitors; settings: Ebright et al., WO/2012/129173; cited from earlier work
[2] = test system: Gram-positive bacterial pathogens; settings: in words, reported previously (Trischman 1994; Moore 1999); cited from earlier work
RNAP = experiment: Mechanism of inhibition of RNAP by Sal; type: biochemical; settings: in words
Haemophilus influenzae = experiment: Antibacterial activity, broth microdilution, Haemophilus influenzae; type: cell-based; settings: in words, Gram-negative bacterial pathogen
Description: (§1) Antibacterial activity was quantified using broth microdilution [Clinical and Laboratory Standards Institute (CLSUNCCLS), Methods for Dilution Antimicrobial Susceptibility Tests for Bacteria That Grow Aerobically; Approved Standard, Eighth Edition. CLIS Document M07-A8 (CLIS, Wayne Pa.), 2009]. Assays with Enterobacter cloacae ATCC 13047, Pseudomonas aeruginosa ATCC10145, and Escherichia coli D21f2to1C, employed a starting cell density of 2-5×10^5 cfu/ml, Mueller Hinton II cation adjusted broth (BD Biosciences, Inc.), and an air atmosphere. Assays with Haemophilus influenzae ATCC49247 and Neisseria gonorrhoeae ATCC 19424 employed a starting cell density of 2-5×10^5 cfu/ml, Haemophilus Test Medium broth (Barry et al., 1993) and a 5% CO2/95% air atmosphere. MIC50 was defined as the minimal concentration resulting in ≧50% inhibition of bacterial growth.

[3] = test system: Gram-positive and Gram-negative bacterial RNAP; settings: in words, reported previously (Miao et al. 1997); cited from earlier work
human RNAP I/II/III = experiment: Radiochemical assay with human RNAP I, II and III (HeLaScribe nuclear extract); type: biochemical
Description: Radiochemical assays with human RNAP I, II, and III were performed essentially as described [Sawadogo and Roeder, Cell 43:165-75, 1985]. Reaction mixtures contained (20 μl): 0-100 μM test compound, 8 U HeLaScribe Nuclear Extract (Promega, Inc.), 1 μg human placental DNA (Sigma-Aldrich), 400 μM ATP, 400 μM [α^32P]UTP (0.11 Bq/fmol), 400 μM CTP, 400 μM GTP, 50 mM Tris-HCl, pH 8.0, 7 mM HEPES-NaOH, 70 mM (NH4)2SO4, 50 mM KCl, 12 mM MgCl2, 5 mM DTT, 0.1 mM EDTA, 0.08 mM phenylmethylsulfonyl fluoride, and 16% glycerol. Reaction components other than DNA and NTPs were pre-incubated 10 min at 30° C., DNA was added and reaction mixtures were incubated 15 min at 30° C., NTPs were added and reaction mixtures were incubated 60 min at 30° C. Reaction mixtures were spotted on DE81 filter discs (Whatman, Inc.; pre-wetted with water) and incubated 1 min at room temperature. Filters were washed with 3×3 ml Na2HPO4, 2×3 ml water, and 3 ml ethanol, using a filter manifold (Hoefer, Inc.). Filters were placed in scintillation vials containing 10 ml Scintiverse BD Cocktail (Thermo Fisher, Inc.), and radioactivity was quantified by scintillation counting (LS6500; Beckman-Coulter, Inc.).
(§2) Half-maximal inhibitory concentrations (IC50s) were calculated by non-linear regression in SigmaPlot (SPSS, Inc.).

Neisseria gonorrhoeae = experiment: Antibacterial activity, broth microdilution, Neisseria gonorrhoeae; type: cell-based; settings: in words, Gram-negative bacterial pathogen
Description: as §1

[4] = test system: Escherichia coli D21f2toIC; experiment: Antibacterial activity, broth microdilution, Escherichia coli D21f2tolC; type: cell-based; settings: minimal concentration resulting in ≧50% inhibition of bacterial growth
Description: as §1

Vero E6 ATCC CRL1586 = experiment: Cytotoxicity to mammalian cells in culture (CellTiter96); type: cell-based
Description: MICs for mammalian cells (Vero E6) in culture were quantified using CellTiter96 assay (Promega. Inc.; procedures as specified by the manufacturer). Screening data for SalA and SalB (compounds 1 and 2) and representative compounds of this invention (compounds 3-9) are presented in Tables 1-2: […]

Pseudomonas aeruginosa = experiment: Antibacterial activity, broth microdilution, Pseudomonas aeruginosa; type: cell-based; settings: in words, Gram-negative bacterial pathogen
Description: as §1

[5] = test system: mutants resistant to other RNAP inhibitors; settings: disclosed herein
[6] = test system: Enterobacter cloacae ATCC 13047; experiment: Antibacterial activity, broth microdilution, Enterobacter cloacae; type: cell-based
Description: as §1

Escherichia coli RNAP = Escherichia coli RNAP (Escherichia coli, UniProt P0A8T7+P0A8V2); experiment: Fluorescence-detected RNAP assay, Escherichia coli RNAP; type: biochemical; settings: fluorescent-detected RNAP assays
Description: Fluorescence-detected RNAP assays with Escherichia coli RNAP were performed by a modification of the procedure of Kuhlman et al., 2004 [Kuhlman et al., Anal. Biochem. 324:183-190, 2004]. Reaction mixtures contained (20 μl): […] test compound, 75 nM Escherichia coli RNAP […] holoenzyme, 20 nM 384 by DNA fragment containing the bacteriophage T4 N25 promoter, 100 μM ATP, 100 μM GTP, 100 μM UTP, 100 μM CTP, 50 mM Tris-HCl, pH 8.0, 100 mM KCl, 10 mM MgCl2, 1 mM DTT, 10 μg/ml bovine serum albumin, and 5.5% glycerol. Reaction components other than DNA and NTPs were pre-incubated for 10 min at 37° C. Reactions were carried out by addition of DNA and incubation for 5 min at 37° C., followed by addition of NTPs and incubation for 60 min at 37° C. DNA was removed by addition of 1 μl 5 mM CaCl2 and 2 U DNaseI (Ambion, Inc.), followed by incubation for 90 min at 37° C. RNA was quantified by addition of 100 μl RiboGreen RNA Quantitation Reagent (Invitrogen, Inc.; 1:500 dilution in Tris-HCl, pH 8.0, 1 mM EDTA), followed by incubation for 10 min at 25° C., followed by measurement of fluorescence intensity [excitation wavelength=485 nm and emission wavelength=535 nm; QuantaMaster QM1 spectrofluorometer (PTI, Inc.)].
as §2

Sequence of Escherichia coli RNAP (P0A800 whole entry, the tested form may be a part): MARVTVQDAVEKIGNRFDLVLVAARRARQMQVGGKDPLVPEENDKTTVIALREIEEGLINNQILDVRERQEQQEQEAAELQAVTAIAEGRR
Sequence of Escherichia coli RNAP (P00579 whole entry, further chain, the tested form may be a part): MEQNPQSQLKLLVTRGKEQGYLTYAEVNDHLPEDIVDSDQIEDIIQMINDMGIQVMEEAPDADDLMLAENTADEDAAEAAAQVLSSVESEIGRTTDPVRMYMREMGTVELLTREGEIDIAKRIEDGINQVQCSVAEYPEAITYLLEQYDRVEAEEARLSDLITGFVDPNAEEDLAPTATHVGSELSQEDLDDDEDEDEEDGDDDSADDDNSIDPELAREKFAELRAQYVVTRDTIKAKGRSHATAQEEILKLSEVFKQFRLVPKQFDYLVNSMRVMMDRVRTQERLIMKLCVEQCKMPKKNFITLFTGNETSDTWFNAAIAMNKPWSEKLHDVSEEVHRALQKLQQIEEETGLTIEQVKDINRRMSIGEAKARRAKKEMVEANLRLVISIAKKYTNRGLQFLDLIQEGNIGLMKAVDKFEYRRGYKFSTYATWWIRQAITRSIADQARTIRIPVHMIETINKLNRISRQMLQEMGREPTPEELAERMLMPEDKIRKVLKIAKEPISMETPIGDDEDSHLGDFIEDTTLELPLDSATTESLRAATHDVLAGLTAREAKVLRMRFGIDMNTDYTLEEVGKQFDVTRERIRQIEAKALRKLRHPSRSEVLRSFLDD
Sequence of Escherichia coli RNAP (P0A8V2 whole entry, the tested form may be a part): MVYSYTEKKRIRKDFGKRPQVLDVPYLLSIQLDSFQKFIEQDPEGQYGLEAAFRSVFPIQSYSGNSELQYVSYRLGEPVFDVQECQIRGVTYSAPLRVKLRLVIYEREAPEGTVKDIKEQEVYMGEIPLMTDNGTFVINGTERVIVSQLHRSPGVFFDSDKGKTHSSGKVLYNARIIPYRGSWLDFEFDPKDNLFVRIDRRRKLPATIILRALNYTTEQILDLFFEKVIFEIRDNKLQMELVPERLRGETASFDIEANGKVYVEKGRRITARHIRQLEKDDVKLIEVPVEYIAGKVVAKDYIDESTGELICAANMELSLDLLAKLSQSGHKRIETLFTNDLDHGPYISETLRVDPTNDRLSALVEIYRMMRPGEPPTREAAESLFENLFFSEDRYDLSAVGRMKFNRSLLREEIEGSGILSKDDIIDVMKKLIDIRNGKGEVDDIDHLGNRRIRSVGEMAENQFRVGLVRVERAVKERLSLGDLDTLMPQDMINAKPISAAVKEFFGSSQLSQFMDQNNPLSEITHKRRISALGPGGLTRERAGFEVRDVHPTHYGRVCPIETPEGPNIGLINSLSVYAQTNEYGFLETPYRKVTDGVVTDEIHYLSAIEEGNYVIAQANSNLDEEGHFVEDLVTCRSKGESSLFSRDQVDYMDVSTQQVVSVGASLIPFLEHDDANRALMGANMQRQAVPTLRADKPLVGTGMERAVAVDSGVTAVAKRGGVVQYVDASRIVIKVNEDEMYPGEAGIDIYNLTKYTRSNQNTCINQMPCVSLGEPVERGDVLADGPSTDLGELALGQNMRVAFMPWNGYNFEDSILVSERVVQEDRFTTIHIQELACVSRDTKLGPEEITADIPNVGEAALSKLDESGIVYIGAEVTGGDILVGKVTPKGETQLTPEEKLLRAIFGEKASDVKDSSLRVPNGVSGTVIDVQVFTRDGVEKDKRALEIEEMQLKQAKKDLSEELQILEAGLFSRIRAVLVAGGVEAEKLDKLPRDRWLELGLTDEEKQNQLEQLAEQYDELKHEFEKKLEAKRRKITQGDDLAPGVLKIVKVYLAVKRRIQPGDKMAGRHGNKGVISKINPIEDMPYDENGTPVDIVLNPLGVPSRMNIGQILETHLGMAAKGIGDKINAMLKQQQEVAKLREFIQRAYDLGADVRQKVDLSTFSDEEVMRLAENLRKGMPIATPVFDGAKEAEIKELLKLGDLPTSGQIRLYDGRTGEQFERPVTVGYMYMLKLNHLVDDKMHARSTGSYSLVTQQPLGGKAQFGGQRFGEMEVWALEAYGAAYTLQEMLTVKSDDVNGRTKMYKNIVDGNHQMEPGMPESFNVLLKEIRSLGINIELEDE
Sequence of Escherichia coli RNAP (P0A8T7 whole entry, the tested form may be a part): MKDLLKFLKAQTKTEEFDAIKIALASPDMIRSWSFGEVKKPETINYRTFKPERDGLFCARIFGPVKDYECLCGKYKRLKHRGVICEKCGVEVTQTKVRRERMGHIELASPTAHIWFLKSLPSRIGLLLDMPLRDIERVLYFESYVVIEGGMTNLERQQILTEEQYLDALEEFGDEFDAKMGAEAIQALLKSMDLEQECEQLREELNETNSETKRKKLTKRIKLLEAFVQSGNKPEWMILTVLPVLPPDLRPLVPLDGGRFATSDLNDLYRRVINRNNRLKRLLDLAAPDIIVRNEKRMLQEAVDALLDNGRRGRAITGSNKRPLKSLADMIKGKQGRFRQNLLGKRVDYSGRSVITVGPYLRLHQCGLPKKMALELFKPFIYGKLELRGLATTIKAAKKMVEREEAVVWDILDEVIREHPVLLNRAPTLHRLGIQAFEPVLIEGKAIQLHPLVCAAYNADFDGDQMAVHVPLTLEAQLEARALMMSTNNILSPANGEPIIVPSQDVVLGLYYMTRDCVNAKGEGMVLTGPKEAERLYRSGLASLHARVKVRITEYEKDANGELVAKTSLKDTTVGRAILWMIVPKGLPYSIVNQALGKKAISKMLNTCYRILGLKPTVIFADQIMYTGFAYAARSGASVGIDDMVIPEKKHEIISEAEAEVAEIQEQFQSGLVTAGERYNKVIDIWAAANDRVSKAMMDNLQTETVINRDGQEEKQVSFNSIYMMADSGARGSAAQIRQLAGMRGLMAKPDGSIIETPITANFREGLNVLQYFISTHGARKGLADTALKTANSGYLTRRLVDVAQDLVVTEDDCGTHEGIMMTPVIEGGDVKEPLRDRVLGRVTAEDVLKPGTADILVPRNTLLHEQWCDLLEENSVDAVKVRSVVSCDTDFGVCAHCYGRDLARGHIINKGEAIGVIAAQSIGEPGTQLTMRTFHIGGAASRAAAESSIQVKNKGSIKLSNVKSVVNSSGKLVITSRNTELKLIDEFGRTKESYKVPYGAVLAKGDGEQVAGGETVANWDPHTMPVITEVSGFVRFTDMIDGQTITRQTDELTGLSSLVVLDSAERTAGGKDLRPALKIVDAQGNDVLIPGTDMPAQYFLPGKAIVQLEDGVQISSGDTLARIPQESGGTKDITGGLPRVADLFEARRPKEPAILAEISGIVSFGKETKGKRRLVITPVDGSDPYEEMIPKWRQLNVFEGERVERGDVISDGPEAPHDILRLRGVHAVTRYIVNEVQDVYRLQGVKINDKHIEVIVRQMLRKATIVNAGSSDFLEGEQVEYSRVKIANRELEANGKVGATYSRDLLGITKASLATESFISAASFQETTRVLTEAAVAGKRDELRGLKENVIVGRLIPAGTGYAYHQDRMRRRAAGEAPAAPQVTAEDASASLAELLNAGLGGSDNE
Sequence of Escherichia coli RNAP (P0A7Z4 whole entry, further chain, the tested form may be a part): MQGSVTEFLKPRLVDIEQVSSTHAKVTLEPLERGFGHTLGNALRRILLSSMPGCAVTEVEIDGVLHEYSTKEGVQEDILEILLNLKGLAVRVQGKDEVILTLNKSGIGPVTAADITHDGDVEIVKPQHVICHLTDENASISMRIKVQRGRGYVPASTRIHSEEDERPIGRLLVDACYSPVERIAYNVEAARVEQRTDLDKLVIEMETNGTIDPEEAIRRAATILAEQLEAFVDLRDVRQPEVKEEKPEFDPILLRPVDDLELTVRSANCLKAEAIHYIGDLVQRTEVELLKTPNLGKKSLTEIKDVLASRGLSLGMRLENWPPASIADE

Salinamide A [SalA (1)]
cross-resistance to Sal of CBR703-resistant mutants [1]: not cross-resistant
cross-resistance to Sal of rifamycin-resistant mutants [1]: not cross-resistant
antibacterial activity against Gram-positive bacterial pathogens [2]: exhibit antibacterial activity
inhibition of formation of the RNAP-promoter open complex in transcription initiation (RNAP): does not inhibit
inhibition of nucleotide addition in both transcription initiation and transcription elongation (RNAP): inhibits
inhibition of wild-type RNAP versus RNAP-derivative having a deletion of the trigger loop (RNAP): equal extents
mode of transcription inhibition with respect to NTP substrate (RNAP): noncompetitive
antibacterial activity against Haemophilus influenzae (Haemophilus influenzae): exhibit antibacterial activity
inhibition of Gram-positive and Gram-negative bacterial RNAP in vitro [3]: inhibits
IC50 (human RNAP I/II/III): > 100 µM
inhibition of human RNAP I, II, and III (human RNAP I/II/III; in words): do not detectably inhibit
antibacterial activity against Neisseria gonorrhoeae (Neisseria gonorrhoeae): exhibit antibacterial activity
MIC50 Escherichia coli D21f2toIC [4]: 0.024 µg/mL
inhibition of growth of mammalian cells in culture (Vero E6 ATCC CRL1586; in words): do not detectably inhibit growth
MIC50 Vero E6 ATCC CRL1586 (Vero E6 ATCC CRL1586; mammalian cells in culture): >100 µg/mL
antibacterial activity against Pseudomonas aeruginosa (Pseudomonas aeruginosa): exhibit antibacterial activity
cross-resistance to Sal of streptolydigin-resistant, myxopyronin-resistant, and lipiarmycin-resistant mutants [5]: do not exhibit cross-resistance
antibacterial activity against Enterobacter cloacae ([6]; in words, Gram-negative bacterial pathogen): exhibit antibacterial activity
MIC50 Enterobacter cloacae ATCC 13047 ([6]; minimal concentration resulting in ≧50% inhibition of bacterial growth): 1.56 µg/mL
IC50 (Escherichia coli RNAP): 1 µM
